Test results published in patent US6916815B2, “C-6 modified indazolylpyrrolotriazines” (Bristol-Myers Squibb Company, priority 2002, dated 2005).
Where a name gives a salt, the structure may show the parent alone.

- melting point: > 300 °C
Compound: CCc1c(NC(=O)OC[C@@H]2COCCN2)cn2ncnc(Nc3ccc4c(cnn4Cc4ccccc4)c3)c12 (as salt: hydrochloride) [Example 1, [5-ethyl-4-[[(1-phenylmethyl)-1H-indazol-5-yl]amino]pyrrolo[2,1-f][1,2,4]triazin-6-yl]-carbamic acid, (3S)-3-morpholinylmethyl ester]
